Values of other authors as cited in patent publication US20070032555A1, “Novel aryloxyphenyl-propanamines” (priority 2005, published 2007).

Experiments:
[1] = humans, FDA Talk Paper T04-60
[2] = system: 6-hydroxydopamine-lesion rats

half life (CYP2D6 poor metabolisers (PM)): 62 h
mean half life (healthy volunteers, CYP2D6 extensive metabolizers (EM)): 18 h
increase of total exposure, measured as AUC0-τ (poor metabolisers (PM) versus extensive metabolizers (EM)): 8-10 fold
Compound: CNCC[C@@H](Oc1ccccc1C)c1ccccc1 [Compound 1, (R)-N-methyl-3-phenyl-3-(o-tolyloxy)propan-1-amine]
hepatotoxicity [1]: rare but very severe hepatotoxicity
motor hyperactivity [2]: reductions in their motor hyperactivity
